Marks after values point to notes of the source that are not given here.
Tests used:
[1] = Hypercalcemic effect: plasma calcium in rats under continuous subcutaneous infusion; assay type: in vivo; conditions: for Plasma Calcium Mean ± SD: 12th day, in mg/dL (unit assumed); for Significantly greater than control? Duncan's Multiple Range Test: plasma calcium
Description: The pumps were filled aseptically with the appropriate dose of drug dissolved in propylene glycol. The pumps were surgically implanted under the skin on the dorsal neck and shoulder area aseptically. On the 12th day of infusion, rats were deeply anesthetized (isofluorane inhalation) and blood was collected by cardiac puncture for plasma calcium determination. The plasma calcium levels were determined by standard methods.

[2] = Plasma 1,25-D3 concentration in mice after a single oral dose (RIA)
[3] = system: β-glucuronidase activity, ileum lumen contents; assay: β-glucuronidase cleavage in ileum lumen contents, free 1,25-D3 by RIA; assay type: in vitro ADME, rats; conditions: 2100 pg added
Description: (§1) The proximal 25 cm of duodenum/jejunum, the caudal 12 cm of ileum, and the cranial 12 cm of colon were removed. The contents from the lumen of each section were flushed with 3 ml water, collected, and pooled. Three-ml aliquots of intestinal contents were placed into tubes. To the tubes, either 2100 pg (3.53 pmoles) β-gluc-1,25-D3 was added and incubated at 37° C. for 0, 1, 3, or 6 hrs, or 150 pg (0.36 pmoles) of 1,25-D3 was added and incubated for 0 or 6 hrs. […] Acetonitrile (3 ml) was added to each tube after incubation to end all enzymatic activity, after which the 1,25-D3 was extracted. Tritiated 1,25-D3 was added to each tube to assess extraction efficiency. The preparations were cleaned by HPLC, and the samples were analyzed for 1,25-D3 content by RIA (Heartland Assays, Ames, Iowa) (Hollis et al., J. Steroid Biochem. Mol. Biol. 2007 103(3-5):473-6).

[4] = Plasma calcium in the DSS mouse model of IBD; assay type: in vivo; conditions: DSS mice
From the text: In this example, β-gluc-1,25-D3 compounds, alone or in combination with 25-β-glucuronide-25-hydroxyvitamin D3 compounds (hereinafter β-gluc-25-D3) were incorporated into the diet of mice and compared to equimolar 1,25-D3 with respect to therapeutic effects on IBD and induction of calcemia. A standard mouse model of IBD comprising administering dextran sodium sulfate (DSS) to induce inflammation of the lower colon was used to study these effects. Vitamin D treatments were first initiated for 4 days. After 4 days, mice were fed DSS-water for 7 days, allowed one day to recover, and sacrificed. Colon length, plasma calcium, fecal blood score, and body weight were assayed. Colon length is a standard marker of intestinal inflammation in the literature, with shortened colon length being an indicator of inflammation. A 1-cm section of the mid-colon was removed, fixed in formalin, and stained with hematoxylin & eosin for microscopic histopathologic evaluation by a veterinary pathologist blinded to the treatments. Each tissue section received a score from 0 to 4 reflecting absence of lesion to severe, extensive lesion for each of three criteria: (1) the degree of erosion/ulceration of colon mucosa; (2) the degree of infiltration of the tissues by inflammatory cells; and (3) the degree of submucosal edema. The sum of the score of each of these criteria constitutes the histopathological score for the tissue with a zero score representing normal tissue based on all criteria, and the worst possible outcome being a score of 12.

[5] = system: β-glucuronidase activity, duodenum lumen contents; assay: β-glucuronidase cleavage in duodenum lumen contents, free 1,25-D3 by RIA; assay type: in vitro ADME, rats; conditions: 2100 pg added
Description: as §1

Cyp24 = Cyp24 mRNA expression in colon of mice after a single oral dose; assay type: in vivo; conditions: 6 hrs; for increase in Cyp24 expression in the colon: relative to untreated mice
Description: Mice were decapitated 6 hrs later following light anesthesia under inhaled halothane. […] Tissue samples were flushed with ice-cold phosphate-buffered saline and immediately homogenized in 1 ml of TRIzol® reagent (Invitrogen Corp., Carlsbad, Calif.). Samples were then kept frozen at −86° C. prior to processing for RNA. For processing RNA, each TRIzol® homogenate was thawed at room temperature and 500 μl placed in a clean microfuge tube, mixed thoroughly with 100 μl chloroform for 15 sec and then centrifuged at 12,000×g for 15 min at 4° C. The upper aqueous phase was removed and mixed with 0.93 volumes of 75% EtOH. The mixture was then applied to an RNeasy spin column (Qiagen Inc., Germantown, Md.) and processed as described by the manufacturer with the exception that an additional wash with 2M NaCl/2 mM EDTA (pH 4.0) was included (Das et al. J Vet Diagn Invest. 2009; 21:771-778). RNA was eluted in 50 μl of water and the concentration obtained by UV spectrometry. One microgram of RNA was then used as a template for production of cDNA in a 20-μl reaction volume using random hexamers and Superscript III as described by the manufacturer (Invitrogen, Carlsbad, Calif.). Afterwards, samples were diluted to 100 μl final volume with TE buffer and stored at −20° C. prior to PCR analysis. Quantitative real-time RT-PCR was performed using a Stratagene Mx3005p cycler (Stratagene, La Jolla, Calif.) and PerfeCTa® SYBR® Green FastMix®, ROX reagent (Quanta Biosciences, Gaithersburg, Md.). Amplification of target cDNAs was accomplished with the following primers: Aliquots (8.3 ng) of cDNA were amplified under the following conditions: 95° C. for 30 sec, followed by 45 cycles of 95° C. for 1 sec and 57° C. for 30 sec. […] Oligonucleotides were obtained from Integrated DNA Technologies (Coralville, Iowa).

DU-145 cells = assay: DU-145 cell proliferation (CELLTITER BLUE); assay type: cell-based, human; conditions: for Proliferation index (Mean ± SEM): 4 days, control = 100
Description: LNCaP cells (ATCC # CRL-1740) are malignant prostate cancer cells originally obtained from a lymph node of a person whose prostatic cancer had metastasized to the lymph node. LNCaP cells were grown in tissue culture using RPMI-1640 media with 10% fetal bovine serum. Wells of two 48-well tissue culture plates were seeded with 5000 LNCaP cells/well. […] Half the media was replaced with fresh media with treatments on the third day of the treatment period. By day 6 of treatment, wells of control untreated cells were approximately 60% confluent. The live cell numbers in each well at the end of treatment were assessed using the “CELLTITER BLUE”-brand assay kit (Promega Corp., Madison, Wis.). The assay is based on the ability of living cells to convert a redox dye (resazurin) into a fluorescent end product (resorufin). […] A similar study was performed using a second human-derived prostatic cancer cell line known as DU-145 (ATCC# HTB-81). […] Exp. Med. Biol. 1995 375:53-63). The DU-145 cells were propagated in Eagle's Minimum Essential Medium with 10% fetal bovine serum. The cells were treated in culture for just 4 days, with half the media replaced with fresh media on day 3 of treatment. Cells were 40% confluent at the end of treatment.

Compound: C=C1/C(=C\C=C2/CCC[C@]3(C)[C@@H]([C@H](C)CCCC(C)(C)O[C@@H]4O[C@H](C(=O)O)[C@@H](O)[C@H](O)[C@H]4O)CC[C@@H]23)C[C@@H](O)C[C@@H]1O [β-gluc-1,25-D3, 25-β-glucuronide-1,25-dihydroxyvitamin D3]
- Plasma Calcium Mean ± SD ([1]; 14 ng/day continuous s.c. infusion): 10.63 ± 0.20
- increase in plasma calcium ([1]; 70 ng/day): no increase in plasma calcium
- Plasma Calcium Mean ± SD ([1]; 70 ng/day continuous s.c. infusion): 10.71 ± 0.15
- Plasma Calcium Mean ± SD ([1]; 250 ng/day continuous s.c. infusion): 11.02 ± 0.49
- Plasma Calcium Mean ± SD ([1]; 350 ng/day continuous s.c. infusion): 11.00 ± 0.25
- symptoms of hypercalcemia (feed intake) ([1]; 500 ng/day): no evidence of a reduction in feed intake or other symptoms
- Plasma Calcium Mean ± SD ([1]; 500 ng/day continuous s.c. infusion): 11.33 ± 0.38
- lowest dose inducing a statistically significant increase in plasma calcium levels ([1]; continuous s.c. infusion): 250 ng/day
- Significantly greater than control? Duncan's Multiple Range Test ([1]; 250 ng/day): Yes
- Significantly greater than control? Duncan's Multiple Range Test ([1]; 350 ng/day): Yes
- Significantly greater than control? Duncan's Multiple Range Test ([1]; 500 ng/day): Yes
- hypercalcemic effect, fold less than the native hormone ([1]; versus 1,25-D3): at least 4 fold
- plasma 1,25-D3 concentration ([2]; 6 pmol per os, 6 hr time point): not significantly increased
- peak plasma 1,25-D3, fold over control mouse plasma 1,25-D3 ([2]; 24 pmol per os): 3.5 fold
- peak plasma concentration of 1,25-D3 ([2]; 24 pmol per os): 325 pg/mL
- time of peak plasma 1,25-D3 concentration ([2]; 24 pmol per os): approximately 3 hr
- plasma 1,25-D3 concentration ([2]; 24 pmol per os, 24 hrs after treatment): slightly below the concentration observed in control animals
- levels of 1,25-D3 in the blood, 1,25-D3 versus β-gluc-1,25-D3 ([2]; 6 hrs following treatment, each dose 6-48 pmol): comparable at each concentration
- Measured Free 1,25-dihydroxy vitamin D ([3]; 0 hrs incubation): 39 pg
- Measured Free 1,25-dihydroxy vitamin D ([3]; 1 hr incubation): 1323 pg
- Measured Free 1,25-dihydroxy vitamin D ([3]; 3 hrs incubation): 1127 pg
- Measured Free 1,25-dihydroxy vitamin D ([3]; 6 hrs incubation): 1342 pg
- Plasma Calcium ([4]; 14 ng/day in diet): 10.25 ± 0.33 mg/dL
- Plasma Calcium ([4]; 70 ng/day in diet): 10.12 ± 0.30 mg/dL
- Plasma Calcium ([4]; 350 ng/day in diet): 10.72 ± 0.33^d mg/dl
- hypercalcemia ([4]; alone at 70 ng/day): not accompanied by a physiologically significant increase in hypercalcemia
- Measured Free 1,25-dihydroxy vitamin D ([5]; 0 hrs incubation): 29 pg
- Measured Free 1,25-dihydroxy vitamin D ([5]; 1 hr incubation): 38 pg
- Measured Free 1,25-dihydroxy vitamin D ([5]; 3 hrs incubation): 63 pg
- Measured Free 1,25-dihydroxy vitamin D ([5]; 6 hrs incubation): 105 pg
- colon Cyp24 response relative to the equimolar dose of 1,25-D3 (Cyp24; 12 pmol per os): about 20 times
- increase in Cyp24 expression in the colon (Cyp24; 12 pmol per os): 60 fold
- increase in Cyp24 in the colon over control mice (Cyp24; 24 pmol per os): about 700 fold
- increase in Cyp24 expression in the colon (Cyp24; 48 pmol per os): > 400 fold
- Proliferation index (Mean ± SEM) (DU-145 cells; DU-145, 20 nM): 90.3 ± 2.2
- Proliferation index (Mean ± SEM) (DU-145 cells; DU-145, 100 nM): 88.7 ± 2.8
- reducing cell proliferation versus native hormone (DU-145 cells; DU-145 cells): as active as the native hormone

Reference: US20110152207A1, “USE OF VITAMIN D GLYCOSIDES AND SULFATES FOR TREATMENT OF DISEASE” (priority 2009, published 2011)
